Assay results as given in patent EP0399731B2, “Azaindenes” (AstraZeneca AB, priority 1989, dated 1990).

Assays:
[1] = biological target: T1, All (angiotensin II) receptors (Cavia porcellus, UniProt Q9WV26); assay: Test A: displacement of radiolabelled All binding from guinea pig adrenal gland membrane fraction; settings: guinea pig adrenal gland membranes; read-out: IC50 (concentration for 50% displacement of radiolabelled All binding)
T1 construct: from tissue; host or cells: guinea pig adrenal gland, cell surface membrane fraction
T1 sequence (Q9WV26 1-359): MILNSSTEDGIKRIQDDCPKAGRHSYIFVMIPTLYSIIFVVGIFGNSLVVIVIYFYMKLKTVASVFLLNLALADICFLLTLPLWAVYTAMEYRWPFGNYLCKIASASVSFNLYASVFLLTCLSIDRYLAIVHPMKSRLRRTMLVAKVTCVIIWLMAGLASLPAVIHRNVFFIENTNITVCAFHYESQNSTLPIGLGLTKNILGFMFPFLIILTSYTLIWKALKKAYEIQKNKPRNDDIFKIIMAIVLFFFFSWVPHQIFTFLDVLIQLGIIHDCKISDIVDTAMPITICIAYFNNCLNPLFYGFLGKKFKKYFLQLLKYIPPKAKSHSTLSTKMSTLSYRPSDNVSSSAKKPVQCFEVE
Protocol: This in vitro procedure involves the incubation of the test compound initially at a concentration of 100 micromolar (or less) in a buffered mixture containing fixed concentrations of radiolabelled All and a cell surface membrane fraction prepared from a suitable angiotensin target tissue. In this test, the source of cell surface membranes is the guinea pig adrenal gland which is well known to respond to All. Interaction of the radiolabelled All with its receptors (assessed as radiolabel bound to the particulate membrane fraction following removal of unbound radiolabel by a rapid filtration procedure such as is standard in such studies) is antagonized by compounds which also bind to the membrane receptor sites and the degree of antagonism (observed in the test as displacement of membrane-bound radioactivity) is determined readily by comparing the receptor-bound radioactivity in the presence of the test compound at the specified test concentration with a control value determined in the absence of the test compound. Using this procedure compounds showing at least 50% displacement of radiolabelled All binding at a concentration of 10^-4 M are retested at lower concentrations to determine their potency. […]

[2] = system: All-induced contractions of isolated rabbit aorta; assay: Test B: antagonism of All-induced contractions of isolated rabbit aorta; format: cell-based; settings: 37°C
Protocol: This in vitro test involves the measurement of the antagonistic effects of the test compound against All-induced contractions of isolated rabbit aorta, maintained in a physiological salt solution at 37°C. In order to ensure that the effect of the compound is specific to antagonism of All, the effect of the test compound on noradrenaline-induced contractions may also be determined in the same preparation.

[3] = system: angiotensin II-induced pressor responses; assay: Test C: antagonism of angiotensin II-induced pressor responses in terminally-anaesthetised or conscious rats; format: in vivo; settings: Rattus norvegicus
Protocol: This in vivo test involves using terminally-anaesthetised or conscious rats in which an arterial catheter has been implanted under anaesthesia for the measurement of changes in blood pressure. The All antagonistic effects of the test compound following oral or parenteral administration, are assessed against angiotensin II-induced pressor responses. To ensure that the effect is specific the effect of the test compound on vasopressin-induced pressor responses may also be determined in the same preparation.

Question: With CCCCc1nc2cccnc2n1Cc1ccc(-c2ccccc2-c2nnn[nH]2)cc1.Cl [Example 3, 2-butyl-3-[(2'-(1H-tetrazol-5-yl)biphenyl-4-yl)methyl]-3H-imidazo[4,5-b]pyridine hydrochloride] as the compound, how does the IC50 [1] read?
Answer: The IC50 was 14.9 nM.

Question: What about the pA2 [2] of the same compound?
Answer: The pA2 was 9.2.

Question: What about the inhibition at 20 mg/kg ([3]; 1 h, after one hour at a dose of 20mg/kg (oral administration)) of the same compound?
Answer: The inhibition at 20 mg/kg was 54%.

Question: What about the ED50 ([3]; parenteral administration) of the same compound?
Answer: Its ED50 is 1.07 mg/kg.
